Test results reported in the supplement of paper PMC8967900.

Tests used:
Test in all cases: selective drug sensitivity score (sDSS, relative to normal bone marrow) (sDSS (score)); higher = more potent and effective on the cell line relative to normal bone marrow cells
Details in all cases: 72 h
[1] = tested on: SUP-B15
[2] = tested on: KASUMI-2
[3] = tested on: COG-LL-319h
[4] = tested on: ALL-PO
[5] = tested on: PF-382
[6] = tested on: P12-ICHIKAWA
[7] = tested on: DND-41
[8] = tested on: 697
[9] = tested on: JURKAT
[10] = tested on: LC4-1
[11] = tested on: CCRF-CEM
[12] = tested on: CCRF-HSB2
[13] = tested on: HAL-01
[14] = tested on: COG-LL-332h
[15] = tested on: RPMI-8402
[16] = tested on: KASUMI-9
[17] = tested on: COG-LL-317
[18] = tested on: ALL-SIL
[19] = tested on: MOLT-4
[20] = tested on: NALM-6
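Also: ALL cell lines in 384-well plates, five doses spanning 10,000-fold, each plate scaled between vehicle and 100 µmol/L benzalkonium chloride controls, sDSS an adapted area-under-curve metric.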

SMILES	selective drug sensitivity score [1]	selective drug sensitivity score [2]	selective drug sensitivity score [3]	selective drug sensitivity score [4]	selective drug sensitivity score [5]	selective drug sensitivity score [6]	selective drug sensitivity score [7]	selective drug sensitivity score [8]	selective drug sensitivity score [9]	selective drug sensitivity score [10]	selective drug sensitivity score [11]	selective drug sensitivity score [12]	selective drug sensitivity score [13]	selective drug sensitivity score [14]	selective drug sensitivity score [15]	selective drug sensitivity score [16]	selective drug sensitivity score [17]	selective drug sensitivity score [18]	selective drug sensitivity score [19]	selective drug sensitivity score [20]
COc1cc2c(NC3CCN(C(C)C)CC3)nc(N3CCC(F)(F)CC3)nc2cc1OCCCN1CCCC1 [UNC0642] (top concentration 10000 nM)	3.36	-0.84	-1.44	2.96	-2.14	-0.14	5.56	0.76	-3.64	-1.14	-0.54	-0.54	-3.54	1.46	-0.74	0.76	1.66	-0.04	-3.44	-2.24
CO[C@@H](C(=O)N1Cc2[nH]nc(NC(=O)c3ccc(N4CCN(C)CC4)cc3)c2C1)c1ccccc1 [Danusertib] (top concentration 10000 nM)	18.6	9.14	19	13	6.24	21.7	-1.36	21.4	-0.96	19.9	18.5	19.8	-2.56	17.2	6.54	15.5	19.4	22.8	14.5	12.5
CC/C(=C(\c1ccc(O)cc1)c1ccc(OCCN(C)C)cc1)c1ccccc1 [4-hydroxytamoxifen] (top concentration 10000 nM)	0.92	-3.78	-4.48	3.12	2.52	2.02	2.72	1.32	2.02	0.72	1.52	1.82	1.92	0.82	2.62	3.62	0.62	1.22	0.62	0.02
O=C(Nc1ccc(OC(F)(F)Cl)cc1)c1cnc(N2CC[C@@H](O)C2)c(-c2cc[nH]n2)c1 [Asciminib] (top concentration 1000 nM)	26.2	-1.98	10	-0.28	-1.78	-1.98	0.22	-1.18	-0.58	-1.98	-1.98	-1.98	-0.88	5.62	-1.98	-1.68	-0.88	31.2	1.12	0.42
CC[C@H](NC(=O)[C@H](C)NC)C(=O)N1C[C@@H](O)C[C@H]1Cc1c(-c2[nH]c3cc(F)ccc3c2C[C@@H]2C[C@H](O)CN2C(=O)[C@H](CC)NC(=O)[C@H](C)NC)[nH]c2cc(F)ccc12 [Birinapant] (top concentration 1000 nM)	-3.7	7.8	14.5	-1.9	-4.6	-5.1	-5.1	-5.1	-4.9	-5.1	1.4	5.7	-5.1	9.6	-3.2	-5.1	-5	8.7	-5.1	-4.2
COc1cc2nccc(Oc3ccc(NC(=O)Nc4cc(C)on4)c(Cl)c3)c2cc1OC [Tivozanib] (top concentration 10000 nM)	21.7	4.96	12.6	1.76	1.36	2.66	0.36	5.16	0.96	5.96	1.26	17.9	-0.74	12.2	1.76	2.46	0.86	27	3.46	2.36
N#Cc1ccc(C(c2ccc(C#N)cc2)n2cncn2)cc1 [Letrozole] (top concentration 10000 nM)	0.36	0.76	-0.04	-0.04	-0.04	-0.04	1.06	-0.04	-0.04	-0.04	-0.04	-0.04	-0.04	-0.04	-0.04	-0.04	-0.04	-0.04	-0.04	-0.04
CN1CCN(c2ccc3nc(-c4c(N)c5c(F)cccc5[nH]c4=O)[nH]c3c2)CC1 [Dovitinib] (top concentration 10000 nM)	0.26	-0.14	-0.14	6.86	-0.14	-0.14	0.16	1.56	-0.14	0.06	0.26	1.86	-0.14	0.36	-0.14	0.56	-0.04	-0.14	-0.14	-0.14
CC[C@]1(O)C[C@H]2CN(CCc3c([nH]c4ccccc34)[C@@](C(=O)OC)(c3cc4c(cc3OC)N(C)[C@H]3[C@@](O)(C(=O)OC)[C@H](OC(C)=O)[C@]5(CC)C=CCN6CC[C@]43[C@@H]65)C2)C1 [Vinblastine] (top concentration 1000 nM)	12.9	6.7	19.7	7.2	-5.3	-3.5	-0.7	12.5	0.5	13.6	-1.5	-3.4	-5.1	-4.2	1.6	14.9	-0.2	5.2	-3.5	6.3
CNS(=O)(=O)Nc1nccc(Cc2c(C)c3ccc(Oc4ncccn4)cc3oc2=O)c1F (top concentration 1000 nM)	10.1	1.12	-1.18	-1.18	-0.18	-0.98	3.92	0.02	0.92	-0.18	-1.18	-1.18	0.82	-1.08	0.12	0.02	-1.08	0.42	-1.18	-0.88
COc1cc(OC)cc(N(CCNC(C)C)c2ccc3ncc(-c4cnn(C)c4)nc3c2)c1 [Erdafitinib] (top concentration 1000 nM)	-0.46	-0.56	0.44	-0.46	-0.56	-0.56	-0.26	-0.06	-0.56	-0.56	-0.56	3.04	6.94	-0.46	-0.56	0.34	-0.56	2.74	-0.56	-0.56
CNC(=O)c1ccc(N2C(=S)N(c3ccc(C#N)c(C(F)(F)F)c3)C(=O)C2(C)C)cc1F [Enzalutamide] (top concentration 10000 nM)	3.38	-0.82	1.58	0.88	0.18	-0.42	1.58	1.48	1.18	0.28	-0.52	-0.52	-0.82	-0.12	0.48	-0.82	1.18	-0.82	-0.82	0.68
CN1CCN(c2ccc(C(=O)Nc3n[nH]c4ccc(Cc5cc(F)cc(F)c5)cc34)c(NC3CCOCC3)c2)CC1 [Entrectinib] (top concentration 1000 nM)	-0.7	-1.2	-1.2	3.3	-1.2	-1.2	-1.2	-1.2	-1.2	-1.2	-1.2	0.9	0	-0.5	-1.2	-1.1	-0.7	-0.6	-1.2	-1.2
FC(F)(F)c1ccc(/C=C/c2nc(COc3ccc(CCCCn4ccnn4)cc3)co2)cc1 [Mubritinib] (top concentration 1000 nM)	10.6	11.6	11.1	6.16	14.2	20.7	5.46	15.5	24	4.86	6.06	9.36	3.06	8.06	22.5	3.56	2.26	8.66	19.6	12.1
O=c1sn(-c2cccc3ccccc23)c(=O)n1Cc1ccccc1 [Tideglusib] (top concentration 3000 nM)	-0.3	-0.3	-0.3	-0.3	-0.3	-0.3	3.4	-0.3	-0.3	-0.3	-0.3	-0.3	-0.3	-0.3	-0.3	-0.3	-0.3	3.7	-0.3	-0.3
N#Cc1ccc2[nH]c(O)c(-c3ccc(CN4CCOCC4)cn3)c2c1 [AZD-1080] (top concentration 10000 nM)	5.08	3.48	6.28	2.18	-0.02	-0.02	-0.02	4.38	-0.02	3.28	-0.02	1.08	-0.02	-0.02	-0.02	4.08	3.38	-0.02	-0.02	1.78
CCOc1ccccc1-n1c(C(C)N2CCN(C(=O)COc3ccc(Cl)cc3)CC2)nc2ccccc2c1=O (stereo not given) [Erastin] (top concentration 10000 nM)	14	19.4	19.3	4.54	21	7.94	7.14	20.1	-0.16	16	9.34	10.6	18.5	12.7	-5.96	7.74	11.2	6.94	-2.26	7.44
CN(C)C(=N)NC(=N)N [Metformin] (top concentration 100000 nM)	-0.02	-0.02	-0.02	-0.02	-0.02	-0.02	0.08	-0.02	-0.02	-0.02	-0.02	-0.02	-0.02	-0.02	-0.02	-0.02	-0.02	-0.02	-0.02	-0.02
